We go through two molecules from patent US20220213198A1, “METHOD OF TREATMENT” (The Council of the Queensland Institute of Medical Research, priority 2019, published 2022).

This assay has as its system LWT1 melanoma cells. Kind of assay: LWT1 experimental lung metastasis model. It counts as in vivo, mouse. To be noted: day 14. As for the experimental part: FIG. 2. Up-regulation of MR1 on B16F10 cells increases lung metastases that is dependent on MAIT cells. (A) The schematic and timeline of expanding MAIT cells from splenocytes derived from C57BL/6 WT mice with IL-2 and 5-OP-RU, for sorting and adoptive transfer into tumor-bearing mice. (B, C) Groups of WT or MR1^−/− or Rag2cγ^−/− mice (n=5-6/group) were injected i.v. with (B) 1×10^5 or (C) 1×10^4 B16F10 melanoma cells. In some groups, sorted MAIT or T conventional cells (cT) (non-MAIT αβ^+ T cells) (2×10^5 cells/mouse) from C57BL/6 (B) WT or (C) TCRδ^−/− mice were i.v. injected into the indicated groups of mice one day before tumor inoculation. (C) One group of mice received i.v injection of media alone as a control. (B, C) On day 14 relative to tumor cell inoculation, lungs were harvested and the metastatic burden was quantified by counting colonies on the lung surface. Data presented as mean±SEM. (D) B16F10 or LWT1 melanoma cells were stimulated in vitro with DMSO or 5-OP-RU (100 nM) for 4 hours before cell surface MR1 expression was determined by flow cytometry. […] Fourteen days later relative to tumor cell inoculation, lungs were harvested and the metastatic burden was quantified by counting colonies on the lung surface. […] Significant differences between groups as indicated by crossbars were determined using a one-way ANOVA followed by Tukey's post-hoc test (B, E, F), *p<0.05, **p<0.01, ****p<0.0001
FIG. 6. […] (A-D) On day 14, lungs were harvested and the metastatic burden was quantified by counting colonies on the lung surface. […] (E, F), Mice were monitored for tumor growth (calculated by the product of 2 perpendicular axes). […] Significant differences between groups as indicated by crossbars were determined by a one-way ANOVA followed by Tukey's post-hoc test (A, B) or a Mann-Whitney test (C, […]), *p<0.05, **p<0.01, ***p<0.001.
The indicated numbers of B16F10 and LWT1 cells were injected intravenously (i.v.) into the tail vein of WT or gene-targeted mice. […] Lungs were harvested on day 14, and surface tumor nodules were counted under a dissection microscope. […]

Consider `CC(=O)C=Nc1c(NC[C@H](O)[C@H](O)[C@H](O)CO)[nH]c(=O)[nH]c1=O` [5-OP-RU], for which the “number of lung metastases” value was “this increase was lost” (MR1-/- mice i.v. injected with pre-treated LWT1, vs DMSO-treated) and “significantly increased” (WT mice i.v. injected with LWT1 pre-treated 100 nM 4 h, vs DMSO-treated).

B1: 8F2.F9: anti-MR1 blocking antibody from hybridoma clone 8F2.F9, IgG1 isotype; heavy chain SEQ ID NO: 14, light chain SEQ ID NO: 18 (antibody, listed as Mus musculus, V domains shown)
VH: MKFSWVIFFLMAVVTGVNSEVQLQQSVAELVRPGASVKLSCTASGFNIKNTYMHWVKKRPELGLEWIGRIDPANGNTNFAPKFQGKATITADTSSNTAYLQLSSLTSEDTAIYYCPRGSGNYYFDYWGQGTTLTVSS
VL: MSSAQFLGLLLLCFQGTRCDIQMTQTTSSLSASLGDRVTISCRASQDISNYLNWYQQKPDGPVKLLIYYTSRLHSGVPSRFSGSGSGTDYSLTINNLAQEDIATYFCQQGNTLPYTFGGGTKLEIK
With B1, the LWT1 lung metastases entry (250 μg/mouse i.p. days -1, 0 and 3, vs cIg) is on record as “significantly reduced”.
